# Source: ChEMBL document CHEMBL1152514, “Anti-tumor-initiating effects of phenolic compounds isolated from the bark of Picea jezoensis var. jezoensis” (2009)
# Active and inactive are the calls of the source. The rule behind the calls is not given here.
# Test system: not listed separately
# Assay: Anticancer activity against peroxynitrite/TPA-induced skin cancer in ICR mouse assessed as occurrence of papilloma at 0.187 mg/day, po administered for 2 weeks measured on week 11
# Type: functional
row,SMILES,Activity
1,Oc1cc(O)cc([C@H]2c3c(cc(O)c4c3O[C@H](c3ccc(O)c(O)c3)[C@@H](O)C4)O[C@@H]2c2ccc(O)c(O)c2)c1 [JEZONOCINOL B],27%

# Test system: not listed separately
# Assay: Antitumor initiating activity in human Chang cells assessed as ratio of inhibition of cellular transformation in presence of NOR1 to compound and NOR1 at 350 nmol treated 1 min before NOR1 addition measured after 1 hr by light microscopy
# Type: functional
row,SMILES,Ratio
1,CC(C)c1cc2c(cc1O)[C@@]1(C)CCC[C@@](C)(C(=O)O)[C@@H]1CC2,2
2,CC(=O)Oc1cc(OC(C)=O)c2c(c1)[C@@H]1C3C(=CC(=O)C[C@H]1c1ccc(OC(C)=O)c(OC(C)=O)c1)O[C@H](c1ccc(OC(C)=O)c(OC(C)=O)c1)[C@@H](O)[C@H]23 (stereo not given in full),1.8
3,CC(=O)Oc1cc(OC(C)=O)cc([C@H]2c3c(/C=C/c4ccc(OC(C)=O)c(OC(C)=O)c4)cc(OC(C)=O)cc3O[C@@H]2c2ccc(OC(C)=O)c(OC(C)=O)c2)c1,1.9
4,CC(=O)Oc1cc(/C=C/c2ccc3c(c2)O[C@H](c2ccc(OC(C)=O)c(OC(C)=O)c2)[C@@H](c2cc(OC(C)=O)cc(OC(C)=O)c2)O3)cc(OC(C)=O)c1,1.8
5,CC(=O)Oc1cc(OC(C)=O)cc([C@@H]2c3c(cc(OC(C)=O)c4c3O[C@H](c3ccc(OC(C)=O)c(OC(C)=O)c3)[C@@H](O)C4)O[C@H]2c2ccc(OC(C)=O)c(OC(C)=O)c2)c1,1.9
6,CC(=O)Oc1cc(OC(C)=O)cc([C@H]2c3c(cc(OC(C)=O)c4c3O[C@H](c3ccc(OC(C)=O)c(OC(C)=O)c3)[C@@H](O)C4)O[C@@H]2c2ccc(OC(C)=O)c(OC(C)=O)c2)c1,1.9
7,CC(=O)Oc1ccc(/C=C/c2cc(OC(C)=O)cc3c2[C@H](c2cc(OC(C)=O)cc(OC(C)=O)c2)[C@@H](c2ccc(OC(C)=O)c(OC(C)=O)c2)O3)cc1,1.8
8,COc1cc([C@H]2Oc3cc(C(=O)O)ccc3O[C@@H]2CO)ccc1O [3-O-METHYL ISOAMERICANOIC ACID A],1.7
9,O=C1c2c(O)cc(O)cc2O[C@H](c2ccc(O)c(O)c2)[C@H]1O [(+)-TAXIFOLIN],2.5
10,Oc1cc(O)cc(/C=C/c2ccc3c(c2)O[C@H](c2ccc(O)c(O)c2)[C@@H](c2cc(O)cc(O)c2)O3)c1 [CASSIGAROL E],2.1
11,O=C(O)/C=C/c1ccc(O)cc1 [COUMARIC ACID],1.9
12,COc1cc(/C=C/C(=O)CC(=O)/C=C/c2ccc(O)c(OC)c2)ccc1O [CURCUMIN],2.1
13,COc1cc([C@@H]2Oc3c(OC)cc(CCCO)cc3[C@H]2CO)ccc1O [DIHYDRODEHYDRODICONIFERYL ALCOHOL],1.8
14,COc1cc([C@H]2c3cc(O)c(OC)cc3C[C@@H](CO)[C@@H]2CO)ccc1O [ISOLARICIRESINOL],2
15,Oc1cc(O)cc([C@@H]2c3c(cc(O)c4c3O[C@H](c3ccc(O)c(O)c3)[C@@H](O)C4)O[C@H]2c2ccc(O)c(O)c2)c1 [JEZONOCINOL A],2.7
16,Oc1cc(O)cc([C@H]2c3c(cc(O)c4c3O[C@H](c3ccc(O)c(O)c3)[C@@H](O)C4)O[C@@H]2c2ccc(O)c(O)c2)c1 [JEZONOCINOL B],2.7
17,O=C1C=C2O[C@H](c3ccc(O)c(O)c3)[C@@H](O)[C@@H]3c4c(O)cc(O)cc4[C@H](C23)[C@H](c2ccc(O)c(O)c2)C1 (stereo not given in full) [JEZONOCINOL C],2.3
18,O=C1C=C(/C=C/c2ccc(O)c(O)c2)[C@@H]2C(=O)[C@H]1[C@H](c1ccc(O)c(O)c1)[C@H]2c1cc(O)cc(O)c1 [JEZONODIONE],2.2
19,Oc1cc2c3c(c4cc(O)cc5c4c(c3c1)[C@@H](c1ccc(O)c(O)c1)O5)[C@@H](c1ccc(O)c(O)c1)O2 [JEZONOFOL],2.3
20,COc1cc(/C=C2/C(=O)O[C@H](c3ccc(O)c(O)c3)[C@H]2c2cc(O)cc(O)c2)ccc1O [JEZONOLIDE],2.1
21,COc1cc(C[C@H]2CO[C@H](c3ccc(O)c(OC)c3)[C@H]2CO)ccc1O [LARICIRESINOL],2
22,Oc1cc(O)cc(/C=C/c2ccc(O)c(O)c2)c1 [PICEATANNOL],2
23,O=Cc1ccc(O)c(O)c1 [PROTOCATECHUALDEHYDE],1.8
24,O=C(O)c1ccc(O)c(O)c1 [PROTOCATECHUIC ACID],1.8
25,O=c1c(O)c(-c2ccc(O)c(O)c2)oc2cc(O)cc(O)c12 [QUERCETIN],2.9
26,Oc1ccc(/C=C/c2cc(O)cc3c2[C@H](c2cc(O)cc(O)c2)[C@@H](c2ccc(O)c(O)c2)O3)cc1 [SCIRPUSIN A],2
27,Oc1cc(O)cc([C@H]2c3c(/C=C/c4ccc(O)c(O)c4)cc(O)cc3O[C@@H]2c2ccc(O)c(O)c2)c1 [TRANS-SCIRPUSIN B],2.2

# Test system: Mus musculus
# Assay: Anticancer activity against peroxynitrite/TPA-induced skin cancer in ICR mouse assessed as delay in tumor promotion at 0.187 mg/day, po administered for 2 weeks
# Type: functional, organism-based
row,SMILES,Activity
1,Oc1cc(O)cc([C@H]2c3c(cc(O)c4c3O[C@H](c3ccc(O)c(O)c3)[C@@H](O)C4)O[C@@H]2c2ccc(O)c(O)c2)c1 [JEZONOCINOL B],Active

# Test system: not listed separately
# Assay: Anticancer activity against peroxynitrite/TPA-induced skin cancer in ICR mouse assessed as average number of papilloma per mouse at 0.187 mg/day, po administered for 2 weeks measured on week 20
# Type: functional
row,SMILES,Activity
1,Oc1cc(O)cc([C@H]2c3c(cc(O)c4c3O[C@H](c3ccc(O)c(O)c3)[C@@H](O)C4)O[C@@H]2c2ccc(O)c(O)c2)c1 [JEZONOCINOL B],3.1
